{"source": "patent US20050215641A1", "about": "“Compositions comprising reverse isomers of conjugated linoleic acid” (priority 2004, published 2005)", "key": {"lactating Holstein cows": {"tested_on": "lactating Holstein cows", "assay": "Milk fat depression model, abomasal infusion of CLA supplements, 4x4 Latin square (Example 4)", "assay_type": "in vivo", "conditions": "for inhibitory effects on lipid synthesis: milk fat depression model, general statement; for Milk fat yield reduced / Milk fat % / Milk fat kg/d: 5 g/d of isomer of interest; for Milk fat yield reduced: 5 d; for Milk fat yield reduced / transfer efficiency of specific CLA isomers within respective treatment groups: P<0.001; for Milk fat % / Milk fat kg/d: average of day 4 and 5 of supplementation; for transfer efficiency of specific CLA isomers within respective treatment groups: abomasal infusion 5 g/d", "source_text": "Four rumen-fistulated lactating Holstein cows (149±18 DIM) were randomly assigned in a 4×4 Latin square experiment. Treatments were abomasal infusions of 1) ethanol (control), 2) trans-10, cis-12 CLA supplement (positive control), 3) trans-9, trans-11 CLA supplement, and 4) trans-9, cis-11 CLA supplement. The trans-10, cis-12 and trans-9, trans-11 CLA supplements were of high purity (>90%), whereas the trans-9, cis-11 CLA supplement consisted mainly of 3 CLA isomers: trans-9, cis-11 (32%), cis-9, trans-11 (29%) and trans-9, trans-11 (17%). CLA supplements supplied 5 g/d of the CLA isomer of interest and the daily dose was provided by infusion at 6 h intervals. Treatment periods were 5 d in length with a 7 d washout interval. Milk yield and DMI were unaffected by treatment (P>0.05). Milk fat yield was reduced 27% by the trans-10, cis-12 CLA treatment and 15% by the trans-9, cis-11 CLA treatment, while the trans-9, trans-11 CLA treatment had no effect (P<0.001). Milk protein content and yield were reduced by the trans-9, trans-11 CLA treatment only (P<0.01). The transfer efficiency of specific CLA isomers within respective treatment groups was 22% for trans-10, cis-12 CLA, 21% for trans-9, trans-11 CLA and 46% for trans-9, cis-11 CLA (P<0.001). […] The data are summarized in Tables 4 and 5 and FIGS. 3 and 4."}, "cows": {"tested_on": "cows", "assay": "Milk fat depression model, continuous abomasal infusion of CLA isomer emulsions (Example 3)", "assay_type": "in vivo", "conditions": "for inhibitory effects on lipid synthesis: milk fat depression model, general statement; for Yield Fat / Concentration Fat: abomasal infusion of emulsion, 1 g/L CLA, over four days; for Yield Fat: mean treatment effects; for Concentration Fat: milk", "experimental": "When CLA is prepared with alkaline isomerization of linoleic acid, the isomers t10,c12 and c9,t11 are formed. Further, trans, trans isomers of 9,11 and 10,12 can be formed catalytically at high temperatures, as well as t8,c10 and c11,t13. […] This example describes, for the first time, a biological effect of the c10,t12 isomer of CLA.\nEmulsions of three different isomer preparations (see Table 2; t10,c12; t10,t12; and a mixture of t10, c12; c10,t12 and t10,t12 isomers; prepared as described in Example 1) were prepared essentially the same way as described by Chouinard, et al., J. Nutr. 129:1579 [1999]. The concentration of CLA in these emulsions was 1 g/L and the emulsions were administered continuously to cows at the rate of 3 1/24 h over four days as described by Chouinard, et al., J. Nutr. 129:1579 [1999]. Briefly, the emulsions were continuously infused into the abomasum via infusion lines that pass through the rumen cannula and omasal canal and peristaltic pumps. Milk was sampled daily and concentration of milk fat was determined by infrared analysis using Milko-Scan 133B analyser (Foss Electric, Hillerød, Denmark). […] Table 3 presents the mean treatment effects on intake and milk production."}, "[1]": {"assay": "Peroxide values (PV) by ferric thiocyanate method after storage", "assay_type": "physicochemical", "conditions": "after storage in open glass", "source_text": "The present invention also contemplates stabilization of the c10,t12, c10,c12, t9,c11 and/or c9,c11 compositions by preventing oxidation of the compounds. The present invention is not limited to any one mechanism. Indeed, an understanding of the mechanism of the invention is not necessary to produce the composition or perform the methods of the present invention. […] After storage in open glass, the PV of CLA was 32; in comparison, the value for linoleic acid was 370."}}, "note": "Marks after values point to notes of the source that are not given here.", "data": [{"compound": "CCCCCC/C=C\\C=C/CCCCCCCC(=O)O", "note": "[c9,c11]", "values": [{"measurement": "inhibitory effects on lipid synthesis", "setting": "lactating Holstein cows", "value": "strong inhibitory effects"}]}, {"compound": "CCCCC/C=C\\C=C/CCCCCCCCC(=O)O", "note": "[c10,c12, c10,c12 octadecadienoic acid]", "values": [{"measurement": "inhibitory effects on lipid synthesis", "setting": "cows", "value": "strong inhibitory effects"}]}, {"compound": "CCCCC/C=C/C=C\\CCCCCCCCC(=O)O", "note": "[c10,t12, c10,t12 octadecadienoic acid]", "values": [{"measurement": "inhibitor of lipid synthesis", "setting": "cows; concluded from the effect of the isomer mixture versus purified t10,c12", "value": "stronger inhibitor of lipid synthesis than t10,c12"}, {"measurement": "inhibitory effects on lipid synthesis", "setting": "cows", "value": "strong inhibitory effects"}]}, {"compound": "CCCCC/C=C\\C/C=C\\CCCCCCCC(=O)O", "note": "[linoleic acid]", "values": [{"measurement": "peroxide values (PV)", "setting": "[1]", "value": 370}]}, {"compound": "CCCCCC/C=C/C=C/CCCCCCCC(=O)O", "note": "[t9, t11 CLA]", "values": [{"measurement": "Milk fat yield reduced", "setting": "lactating Holstein cows", "value": "no effect"}, {"measurement": "Milk fat %", "setting": "lactating Holstein cows", "value": "4.03^a %"}, {"measurement": "Milk fat kg/d", "setting": "lactating Holstein cows", "value": "0.770^a kg/d"}, {"measurement": "transfer efficiency of specific CLA isomers within respective treatment groups", "setting": "lactating Holstein cows", "value": 21, "unit": "%"}]}, {"compound": "CCCCCC/C=C\\C=C\\CCCCCCCC(=O)O", "note": "[t9,c11, t9,c11 octadecadienoate]", "values": [{"measurement": "inhibitory effects on lipid synthesis", "setting": "lactating Holstein cows", "value": "strong inhibitory effects"}]}, {"compound": "CCCCC/C=C\\C=C\\CCCCCCCCC(=O)O", "note": "[t10, c12, t10,c12 octadecadienoic acid]", "values": [{"measurement": "Milk fat yield reduced", "setting": "lactating Holstein cows", "value": 27, "unit": "%"}, {"measurement": "Milk fat %", "setting": "lactating Holstein cows", "value": "2.54^d %"}, {"measurement": "Milk fat kg/d", "setting": "lactating Holstein cows", "value": "0.541^c kg/d"}, {"measurement": "transfer efficiency of specific CLA isomers within respective treatment groups", "setting": "lactating Holstein cows", "value": 22, "unit": "%"}, {"measurement": "Yield Fat", "setting": "cows", "value": "573^ab g/day"}, {"measurement": "Concentration Fat", "setting": "cows", "value": "29.1^b g/kg"}]}, {"compound": "CCCCC/C=C/C=C/CCCCCCCCC(=O)O", "note": "[t10, t12, t10,t12 CLA]", "values": [{"measurement": "Yield Fat", "setting": "cows", "value": "694^a g/day"}, {"measurement": "Concentration Fat", "setting": "cows", "value": "7.2^a g/kg"}, {"measurement": "effect on the concentration of milk fat", "setting": "cows; purified form", "value": "did not have any effect"}]}]}
